SMILES strings stand for the structures.

The test system of the assay is MV-4-11 cells. As to the kind of experiment: Gene expression microarray analysis (Affymetrix PrimeView) and GSEA. Type of assay: cell-based, human. Also noted: RFU PODN (11730768_x_at) / Fold change /veh PODN (11730768_x_at) / RFU LINC00158 (11744669_a_at) / Fold change /veh LINC00158 (11744669_a_at) / RFU DUSP10 (11751237_a_at) / Fold change /veh DUSP10 (11751237_a_at) / RFU ID3 (11757404_x_at) / Fold change /veh ID3 (11757404_x_at) / RFU PLEKHG5 (11737974_s_at) / Fold change /veh PLEKHG5 (11737974_s_at) / RFU LRRC4B (11730491_at) / Fold change /veh LRRC4B (11730491_at) / RFU GIMAP4 (11747438_a_at) / Fold change /veh GIMAP4 (11747438_a_at) / RFU KRT8 (11758183_x_at) / Fold change /veh KRT8 (11758183_x_at) / RFU CNN1 (11734310_a_at) / Fold change /veh CNN1 (11734310_a_at) / RFU VPS37D (11726825_at) / Fold change /veh VPS37D (11726825_at) / RFU C10orf10 (11716522_x_at) / Fold change /veh C10orf10 (11716522_x_at) / RFU KIR2DL2 /// KIR2DL4 /// KIR2DL5A /// KIR2DL5B /// KIR2DS1 /// KIR2DS2 /// KIR2DS3 /// KIR2DS4 /// KIR3DL3 /// KIR3DL3 /// KIR3DS1 (11738374_at) / Fold change /veh KIR2DL2 /// KIR2DL4 /// KIR2DL5A /// KIR2DL5B /// KIR2DS1 /// KIR2DS2 /// KIR2DS3 /// KIR2DS4 /// KIR3DL3 /// KIR3DL3 /// KIR3DS1 (11738374_at) / RFU C1QL1 (11718748_at) / Fold change /veh C1QL1 (11718748_at) / RFU TMPRSS4 (11747572_a_at) / Fold change /veh TMPRSS4 (11747572_a_at) / RFU HAMP (11756126_x_at) / Fold change /veh HAMP (11756126_x_at) / RFU RNFT2 (11725882_a_at) / Fold change /veh RNFT2 (11725882_a_at) / RFU NR4A2 (11747474_a_at) / Fold change /veh NR4A2 (11747474_a_at) / RFU ABCC12 (11746883_a_at) / Fold change /veh ABCC12 (11746883_a_at) / RFU TMEM136 (11760407_x_at) / Fold change /veh TMEM136 (11760407_x_at) / RFU CLDN22 /// WWC2 (11732394_at) / Fold change /veh CLDN22 /// WWC2 (11732394_at) / RFU HLA-DPB1 (11760878_x_at) / Fold change /veh HLA-DPB1 (11760878_x_at) / RFU SPINT1 (11716480_a_at) / Fold change /veh SPINT1 (11716480_a_at) / RFU GAP43 (11754022_s_at) / Fold change /veh GAP43 (11754022_s_at) / RFU A4GNT (11735810_at) / Fold change /veh A4GNT (11735810_at) / RFU PRB3 (11715151_x_at) / Fold change /veh PRB3 (11715151_x_at) / RFU TUBB4B (11761932_at) / Fold change /veh TUBB4B (11761932_at) / RFU CAPN14 (11732068_a_at) / Fold change /veh CAPN14 (11732068_a_at) / RFU TMCC2 (11721928_a_at) / Fold change /veh TMCC2 (11721928_a_at) / RFU IRGQ (11745062_a_at) / Fold change /veh IRGQ (11745062_a_at) / RFU FAM174B (11720279_a_at) / Fold change /veh FAM174B (11720279_a_at) / RFU TMPRSS4 (11748680_a_at) / Fold change /veh TMPRSS4 (11748680_a_at) / RFU FAM212B (11763350_a_at) / Fold change /veh FAM212B (11763350_a_at) / RFU PLEKHG5 (11743358_a_at) / Fold change /veh PLEKHG5 (11743358_a_at) / RFU ZSCAN30 (11745921_a_at) / Fold change /veh ZSCAN30 (11745921_a_at) / RFU CMKLR1 (11741424_a_at) / Fold change /veh CMKLR1 (11741424_a_at) / RFU LOC101060620 /// MAPK8IP1 (11723275_at) / Fold change /veh LOC101060620 /// MAPK8IP1 (11723275_at) / RFU SPTSSB (11747773_x_at) / Fold change /veh SPTSSB (11747773_x_at) / RFU PRSS12 (11739890_at) / Fold change /veh PRSS12 (11739890_at) / RFU BIN1 (11741810_x_at) / Fold change /veh BIN1 (11741810_x_at) / RFU WNT11 (11732464_a_at) / Fold change /veh WNT11 (11732464_a_at) / RFU C10orf10 (11716521_a_at) / Fold change /veh C10orf10 (11716521_a_at) / RFU C5orf56 (11738089_at) / Fold change /veh C5orf56 (11738089_at) / RFU CYB561 (11721691_x_at) / Fold change /veh CYB561 (11721691_x_at) / RFU ANKRD19P (11752326_a_at) / Fold change /veh ANKRD19P (11752326_a_at) / RFU OR2T12 /// OR2T33 /// OR2T8 (11738714_s_at) / Fold change /veh OR2T12 /// OR2T33 /// OR2T8 (11738714_s_at) / RFU VCAN (11748164_a_at) / Fold change /veh VCAN (11748164_a_at) / RFU JSRP1 (11732532_at) / Fold change /veh JSRP1 (11732532_at) / RFU KRTAP10-11 (11738290_x_at) / Fold change /veh KRTAP10-11 (11738290_x_at) / RFU MYO3A (11730013_a_at) / Fold change /veh MYO3A (11730013_a_at) / RFU EBF3 (11725865_a_at) / Fold change /veh EBF3 (11725865_a_at) / RFU CAMK2N1 (11719241_x_at) / Fold change /veh CAMK2N1 (11719241_x_at) / RFU C5orf56 (11738088_a_at) / Fold change /veh C5orf56 (11738088_a_at) / RFU OLFML3 (11715873_a_at) / Fold change /veh OLFML3 (11715873_a_at) / RFU LOC100653217 /// NTM (11731650_a_at) / Fold change /veh LOC100653217 /// NTM (11731650_a_at) / RFU MAPK11 (11762145_a_at) / Fold change /veh MAPK11 (11762145_a_at) / RFU FIZ1 (11724087_x_at) / Fold change /veh FIZ1 (11724087_x_at) / RFU OASL (11726364_x_at) / Fold change /veh OASL (11726364_x_at) / RFU SOX15 (11748057_x_at) / Fold change /veh SOX15 (11748057_x_at) / RFU CD79A (11719716_a_at) / Fold change /veh CD79A (11719716_a_at) / RFU HIST1H1D (11736915_at) / Fold change /veh HIST1H1D (11736915_at) / RFU CASKIN2 (11723855_a_at) / Fold change /veh CASKIN2 (11723855_a_at) / RFU LOC730098 (11760151_x_at) / Fold change /veh LOC730098 (11760151_x_at) / RFU OR4N2 (11742367_at) / Fold change /veh OR4N2 (11742367_at) / RFU PRRT2 (11749266_a_at) / Fold change /veh PRRT2 (11749266_a_at) / RFU SNX32 (11753110_a_at) / Fold change /veh SNX32 (11753110_a_at) / RFU CDHR5 (11726645_a_at) / Fold change /veh CDHR5 (11726645_a_at) / RFU RCAN1 (11760418_a_at) / Fold change /veh RCAN1 (11760418_a_at) / RFU FAM167A (11723789_a_at) / Fold change /veh FAM167A (11723789_a_at) / RFU FAM26E (11764081_at) / Fold change /veh FAM26E (11764081_at) / RFU ISYNA1 (11749810_s_at) / Fold change /veh ISYNA1 (11749810_s_at) / RFU ACY1 (11761880_at) / Fold change /veh ACY1 (11761880_at) / RFU 11764098_at / Fold change /veh 11764098_at / RFU SAMD14 (11745864_x_at) / Fold change /veh SAMD14 (11745864_x_at) / RFU NPB (11741838_a_at) / Fold change /veh NPB (11741838_a_at) / RFU TMPRSS6 (11731388_a_at) / Fold change /veh TMPRSS6 (11731388_a_at) / RFU KRTAP10-2 (11738614_at) / Fold change /veh KRTAP10-2 (11738614_at) / RFU ARHGAP8 /// PRR5-ARHGAP8 (11727945_x_at) / Fold change /veh ARHGAP8 /// PRR5-ARHGAP8 (11727945_x_at) / RFU KRTAP5-7 /// NADSYN1 (11734609_at) / Fold change /veh KRTAP5-7 /// NADSYN1 (11734609_at) / RFU RASL12 (11751679_a_at) / Fold change /veh RASL12 (11751679_a_at) / RFU CDKN2B (11736163_a_at) / Fold change /veh CDKN2B (11736163_a_at) / RFU PRF1 (11729649_at) / Fold change /veh PRF1 (11729649_at) / RFU, ZNF638 /// ZNF638-IT1 / Fold change vs veh, ZNF638 /// ZNF638-IT1 / RFU, PANK3 / Fold change vs veh, PANK3 / RFU, SH3YL1 / Fold change vs veh, SH3YL1 / RFU, ZEB2 / Fold change vs veh, ZEB2 / RFU, NRIP1 / Fold change vs veh, NRIP1 / RFU, PTTG1IP / Fold change vs veh, PTTG1IP / RFU, CAPN2 / Fold change vs veh, CAPN2 / RFU, MED14 / Fold change vs veh, MED14 / RFU, SNORA58 / Fold change vs veh, SNORA58 / RFU, C1orf63 / Fold change vs veh, C1orf63 / RFU, LRRFIP1 / Fold change vs veh, LRRFIP1 / RFU, NDUFAF7 / Fold change vs veh, NDUFAF7 / RFU, SLC12A2 / Fold change vs veh, SLC12A2 / RFU, IBTK / Fold change vs veh, IBTK / RFU, ESF1 / Fold change vs veh, ESF1 / Fold change vs veh, TMEM50B / RFU, TAOK1 / Fold change vs veh, TAOK1 / RFU, ACBD3 / Fold change vs veh, ACBD3 / RFU, TMA16 / Fold change vs veh, TMA16 / RFU, RWDD3 / Fold change vs veh, RWDD3 / RFU, BCAT1 / Fold change vs veh, BCAT1 / RFU, EDEM3 / Fold change vs veh, EDEM3 / RFU, TMEM33 / Fold change vs veh, TMEM33 / RFU, WDR75 / Fold change vs veh, WDR75 / RFU, AHCTF1 / Fold change vs veh, AHCTF1 / RFU, TFRC / Fold change vs veh, TFRC / RFU, ZDHHC17 / Fold change vs veh, ZDHHC17 / RFU, NOM1 / Fold change vs veh, NOM1 / RFU, ARL8B / Fold change vs veh, ARL8B / RFU, ZBTB11 / Fold change vs veh, ZBTB11 / RFU, TAMM41 / Fold change vs veh, TAMM41 / RFU, KIAA1704 /// LOC100996395 / Fold change vs veh, KIAA1704 /// LOC100996395 / RFU, ING1 / Fold change vs veh, ING1 / RFU, TRMT61B / Fold change vs veh, TRMT61B / RFU, FUBP3 / Fold change vs veh, FUBP3 / RFU, TP53 / Fold change vs veh, TP53 / RFU, TNKS2 / Fold change vs veh, TNKS2 / RFU, ZFP14 / Fold change vs veh, ZFP14 / RFU, ACTR2 / Fold change vs veh, ACTR2 / RFU, PPP3R1 / Fold change vs veh, PPP3R1 / RFU, PIK3R1 / Fold change vs veh, PIK3R1 / RFU, HNRNPA1 / Fold change vs veh, HNRNPA1 / RFU, RNF170 / Fold change vs veh, RNF170 / RFU, ZNF28 / Fold change vs veh, ZNF28 / RFU, RNGTT / Fold change vs veh, RNGTT / RFU, OGT / Fold change vs veh, OGT / RFU, BRD1 / Fold change vs veh, BRD1 / RFU, MARS / Fold change vs veh, MARS / RFU, ZNF655 / Fold change vs veh, ZNF655 / RFU, FAHD1 / Fold change vs veh, FAHD1 / RFU, BDP1 / Fold change vs veh, BDP1 / RFU, LRRCC1 / Fold change vs veh, LRRCC1 / RFU, ARID1A / Fold change vs veh, ARID1A / RFU, ZNF146 / Fold change vs veh, ZNF146 / RFU, ZNF330 / Fold change vs veh, ZNF330 / RFU, GPN3 / Fold change vs veh, GPN3 / RFU, C9orf123 / Fold change vs veh, C9orf123 / RFU, N4BP2L2 / Fold change vs veh, N4BP2L2 / RFU, ARFIP1 / Fold change vs veh, ARFIP1 / RFU, FAM179B / Fold change vs veh, FAM179B / RFU, BCL10 / Fold change vs veh, BCL10 / RFU, UHRF1BP1L / Fold change vs veh, UHRF1BP1L / RFU, BET1 / Fold change vs veh, BET1 / RFU, CNOT2 / Fold change vs veh, CNOT2 / RFU, ZNF268 / Fold change vs veh, ZNF268 / Fold change vs veh, ZNF507 / RFU, DGCR2 / Fold change vs veh, DGCR2 / RFU, WDSUB1 / Fold change vs veh, WDSUB1 / Fold change vs veh, HSP90B1 /// MIR3652 / RFU, ADSS / Fold change vs veh, ADSS / RFU, GK / Fold change vs veh, GK / RFU, ZNF148 / Fold change vs veh, ZNF148 / RFU, TAF9 / Fold change vs veh, TAF9 / RFU, SLC1A5 / Fold change vs veh, SLC1A5 / RFU, SLMO2 / Fold change vs veh, SLMO2 / RFU, ABCC4 / Fold change vs veh, ABCC4 / RFU, LOC101060439 /// RAP1B / Fold change vs veh, LOC101060439 /// RAP1B / RFU, RFX7 / Fold change vs veh, RFX7 / RFU, GTPBP10 / Fold change vs veh, GTPBP10 / RFU, CNEP1R1 / Fold change vs veh, CNEP1R1 / RFU, BIVM-ERCC5 /// ERCC5 / Fold change vs veh, BIVM-ERCC5 /// ERCC5 / RFU, ILF3 / Fold change vs veh, ILF3 / RFU 11762660_at / Fold change /veh 11762660_at / RFU VCAN (11757783_s_at) / Fold change /veh VCAN (11757783_s_at) / RFU DDX43 (11728927_at) / Fold change /veh DDX43 (11728927_at) / RFU KRT8 (11758188_x_at) / Fold change /veh KRT8 (11758188_x_at) / RFU NKD1 (11759106_at) / Fold change /veh NKD1 (11759106_at) / RFU SRD5A1 (11742802_a_at) / Fold change /veh SRD5A1 (11742802_a_at) / RFU TPSAB1 /// TPSB2 (11721975_s_at) / Fold change /veh TPSAB1 /// TPSB2 (11721975_s_at) / RFU GSTM3 (11746129_a_at) / Fold change /veh GSTM3 (11746129_a_at) / RFU IL23R (11737362_x_at) / Fold change /veh IL23R (11737362_x_at) / RFU TMEM51 (11727254_a_at) / Fold change /veh TMEM51 (11727254_a_at) / RFU PIWIL2 (11732686_x_at) / Fold change /veh PIWIL2 (11732686_x_at) / RFU ORM1 (11744905_x_at) / Fold change /veh ORM1 (11744905_x_at) / RFU CCDC152 (11743942_at) / Fold change /veh CCDC152 (11743942_at) / RFU ECM1 (11717891_a_at) / Fold change /veh ECM1 (11717891_a_at) / RFU IL23R (11748794_a_at) / Fold change /veh IL23R (11748794_a_at) / RFU TNFAIP8L3 (11732012_x_at) / Fold change /veh TNFAIP8L3 (11732012_x_at) / RFU MBOAT4 (11741988_at) / Fold change /veh MBOAT4 (11741988_at) / RFU 11764193_at / Fold change /veh 11764193_at / RFU TMEM53 (11763286_at) / Fold change /veh TMEM53 (11763286_at) / RFU MAGEB2 (11727129_at) / Fold change /veh MAGEB2 (11727129_at) / RFU TMEM200A (11744735_a_at) / Fold change /veh TMEM200A (11744735_a_at) / RFU CCDC152 (11751479_a_at) / Fold change /veh CCDC152 (11751479_a_at) / RFU FAM211A (11726209_a_at) / Fold change /veh FAM211A (11726209_a_at) / RFU RGS16 (11746705_a_at) / Fold change /veh RGS16 (11746705_a_at) / RFU VCAN (11755009_s_at) / Fold change /veh VCAN (11755009_s_at) / RFU RHOB (11743442_s_at) / Fold change /veh RHOB (11743442_s_at) / RFU RGS16 (11720943_a_at) / Fold change /veh RGS16 (11720943_a_at) / RFU RGS16 (11720944_at) / Fold change /veh RGS16 (11720944_at) / RFU, VPS4B / Fold change vs veh, VPS4B / RFU, CREB1 / Fold change vs veh, CREB1 / RFU, DNAJC13 / Fold change vs veh, DNAJC13 / RFU, GNAQ / Fold change vs veh, GNAQ / RFU, CDK5R1 / Fold change vs veh, CDK5R1 / RFU, ZRANB3 / Fold change vs veh, ZRANB3 / RFU, CUL4A / Fold change vs veh, CUL4A / RFU, CCNY / Fold change vs veh, CCNY / RFU, UFL1 / Fold change vs veh, UFL1 / RFU, COG3 / Fold change vs veh, COG3 / RFU, DIAPH2 / Fold change vs veh, DIAPH2 / RFU, SKA2 / Fold change vs veh, SKA2 / RFU, AFF3 / Fold change vs veh, AFF3 / RFU, LMF1 / Fold change vs veh, LMF1 / RFU, IPO11 / Fold change vs veh, IPO11 / RFU, DFFB / Fold change vs veh, DFFB / RFU, FOXP1 / Fold change vs veh, FOXP1 / RFU, CARD8 / Fold change vs veh, CARD8 / RFU, STRN3 / Fold change vs veh, STRN3 / RFU, ADK / Fold change vs veh, ADK / RFU, RASSF2 / Fold change vs veh, RASSF2 / RFU, WIPF1 / Fold change vs veh, WIPF1 / RFU, LARP1B / Fold change vs veh, LARP1B / RFU, RASA1 / Fold change vs veh, RASA1 / RFU, RB1 / Fold change vs veh, RB1 / RFU, PPFIA1 / Fold change vs veh, PPFIA1 / RFU, MAT2A / Fold change vs veh, MAT2A / RFU, CCT5 / Fold change vs veh, CCT5 / RFU, WDR92 / Fold change vs veh, WDR92 / RFU, CUX1 / Fold change vs veh, CUX1 / RFU, TTC7A / Fold change vs veh, TTC7A / RFU, TMEM135 / Fold change vs veh, TMEM135 / RFU, DEPTOR / Fold change vs veh, DEPTOR / RFU, CPM / Fold change vs veh, CPM / RFU, DNAJB6 / Fold change vs veh, DNAJB6 / RFU, CACNA2D3 / Fold change vs veh, CACNA2D3 / RFU, DTX4 / Fold change vs veh, DTX4 / RFU, TFCP2 / Fold change vs veh, TFCP2 / RFU, GMCL1 /// GMCL1P1 / Fold change vs veh, GMCL1 /// GMCL1P1 / RFU, AEBP2 / Fold change vs veh, AEBP2 / RFU, SNHG1 /// SNORD22 /// SNORD25 /// SNORD26 /// SNORD27 /// SNORD28 /// SNORD29 /// SNORD31 / Fold change vs veh, SNHG1 /// SNORD22 /// SNORD25 /// SNORD26 /// SNORD27 /// SNORD28 /// SNORD29 /// SNORD31 / Fold change (Aza/veh), C12orf56 (ProbeSet 11735607_a_at) / Fold change (ACY-1035/veh), C12orf56 (ProbeSet 11735607_a_at) / Fold change (Aza/veh), FGFR1OP (ProbeSet 11751329_s_at) / Fold change (ACY-1035/veh), FGFR1OP (ProbeSet 11751329_s_at) / Fold change (Aza/veh), VPS36 (ProbeSet 11739960_a_at) / Fold change (ACY-1035/veh), VPS36 (ProbeSet 11739960_a_at) / RFU SYPL1 (11715823_x_at) / Fold change /veh SYPL1 (11715823_x_at) / RFU IGFBP7 (11715501_s_at) / Fold change /veh IGFBP7 (11715501_s_at) / RFU REEP3 (11722064_at) / Fold change /veh REEP3 (11722064_at) / RFU IGLL1 (11728026_x_at) / Fold change /veh IGLL1 (11728026_x_at): dose or concentration left out as unconfirmed. Particulars: ProbeSet 11745789_a_at; LIST D.

Consider `Nc1ncn([C@@H]2O[C@H](CO)[C@@H](O)[C@H]2O)c(=O)n1` [azacitidine], for which the “Fold change vs veh, TMEM135” value was found to be 0.56.

The values are drawn from PMC5218480 (PLoS ONE, 2017).
